As a reminder, the IC50 is the concentration at which inhibition is half-maximal.

Structures are written as SMILES.

The target of this test is T1, human SK3 channel (hKCa2.3) (Homo sapiens, UniProt Q9UGI6).
T1 construct: expressed in transfected cells
The test is described as follows: Automated patch clamping (QPatch 16 HT whole-cell recordings). Format: cell-based. The conditions noted are these: HEK-293 cells stably expressing hKCa2.3; currents measured at −80 mV; normalized to N-methyl bicuculline; read-out: IC50 in the Automated patch clamping assay (SK3 channel inhibition). The procedure:
Automated whole cell patch-clamp recordings were performed using a QPatch 16 HT system and single-hole Qplates (Sophion, Denmark) on HEK-293 cells stably expressing the human SK3 channel (hKCa2.3). Cells were cultured and prepared for experiments using normal cell culturing procedures. A total of 4-5 million cells were used per experiment. The Qpatch automatically generates giga sealing, whole-cell formation, compound application and recording of current. hKCa2.3 currents were recorded in symmetrical K^+ solutions. The intracellular/pipette solution contained 154 mM KCl, 10 mM HEPES and 10 mM EGTA. CaCl2 is added to give calculated free concentrations of Ca^2+ of 0.4 μM and MgCl2 is added to give a free concentration of 1 mM. In order to maintain a total [K^+] of 156 mM (corresponding to the concentration in the extracellular ringer) a fixed amount of KOH (15 mM) is added, thereafter pH is adjusted with HCl to pH=7.2. Expected osmolarity: 275 mOsm. Sucrose was added to a final osmolarity around 295 mosm. The extracellular solution consisted of (in mM): CaCl2 0.1, MgCl2 3, KCl 150, HEPES 10 and glucose 10, pH=7.4 adjusted with KOH. Osmolarity between 285-295 mosm. The cells were held at 0 mV and hKCa2.3 currents were elicited by a linear voltage ramp from −80 mV to +80 mV (200 ms in duration) applied every 5th second.
The compound application protocol consisted of 12 recording periods lasting 200 s: 1) Baseline recordings in extracellular solution; 2) Application of the positive control N-methyl bicuculline (100 μM), which is characterized by full efficacy, fast on- and off-rate; 3-4) Wash-out; 5-10) Increasing concentrations of test compound to establish an IC50 value; 11-12) Wash-out; 13) positive control with compound NS8593 (N-[(1R)-1,2,3,4-tetrahydro-1-naphthalenyl]-1H-benzimidazol-2-amine) (1 μM) or with N-methyl bicuculline (100 μM). Data were sampled at 10 kHz, 4th order Bessel filter, cut-off frequency 3 kHz. Currents were compensated for run-down. Potency was quantified as the concentration needed to inhibit half of the SK channel activity and reported as an IC50 value.
All effects of compounds of the present invention as tested were normalized to the observed inhibitory effect of N-methyl bicuculline. Currents were measured at −80 mV.
Background: In patch-clamp work, channel activity is measured electrically.

Consider `CC(CO)(Nc1nc2c(Cn3ccoc3=N)cccc2[nH]1)c1ccc(F)c(Cl)c1` (single isomer, unassigned; (-)) [Example 8a, (−)-2-(3-chloro-4-fluorophenyl)-2-({4-[(2-imino-2,3-dihydro-1,3-oxazol-3-yl)methyl]-1H-1,3-benzodiazol-2-yl}amino)propan-1-ol], for which the IC50 is under 1000 nM.
As for `Cc1cc(NCc2cccc3[nH]c(NC(C)(CO)c4ccc(F)c(Cl)c4)nc23)no1` (single isomer, unassigned; (-)) [Example 12a, (−)-2-(3-chloro-4-fluorophenyl)-2-((4-(((5-methylisoxazol-3-yl)amino)methyl)-1H-benzo[d]imidazol-2-yl)amino)propan-1-ol], the half-maximal inhibitory concentration (IC50) is under 1000 nM.
For the compound `Cc1coc(=N)n1Cc1cccc2[nH]c(NC(C)(CO)c3ccc(F)c(Cl)c3)nc12` (single isomer, unassigned; (-)) [Example 13a, (−)-2-(3-chloro-4-fluorophenyl)-2-({4-[(2-imino-4-methyl-2,3-dihydro-1,3-oxazol-3-yl)methyl]-1H-1,3-benzodiazol-2-yl}amino)propan-1-ol], the IC50 is under 1000 nM.
As for `CC(CO)(Nc1nc2c(Cn3ccoc3=N)cccc2[nH]1)c1cccc(C(F)(F)F)c1` (single isomer, unassigned; (-)) [Example 18a, (−)-2-({4-[(2-imino-2,3-dihydro-1,3-oxazol-3-yl)methyl]-1H-1,3-benzodiazol-2-yl}amino)-2-[3-(trifluoromethyl)-phenyl]propan-1-ol], the figure is under 1000 nM; as for `Cc1coc(=N)n1Cc1cccc2[nH]c(NC(C)(CO)c3cccc(C(F)(F)F)c3)nc12` (single isomer, unassigned; (-)) [Example 23a, (−)-2-({4-[(2-imino-4-methyl-2,3-dihydro-1,3-oxazol-3-yl)methyl]-1H-1,3-benzodiazol-2-yl}amino)-2-[3-(trifluoromethyl)phenyl]propan-1-ol], under 1000 nM.
As for `Cc1cn(Cc2cccc3[nH]c(NC(C)(CO)c4cccc(OC(F)(F)F)c4)nc23)c(=N)o1` (single isomer, unassigned; (-)) [Example 30a, (−)-2-({4-[(2-imino-5-methyl-2,3-dihydro-1,3-oxazol-3-yl)methyl]-1H-1,3-benzodiazol-2-yl}amino)-2-[3-(trifluoromethoxy)-phenyl]propan-1-ol], the figure is under 1000 nM.
As for `CC(CO)(Nc1nc2c(Cn3ccsc3=N)cccc2[nH]1)c1ccc(F)c(Cl)c1` (single isomer, unassigned; (-)) [Example 32a, (−)-2-(3-chloro-4-fluorophenyl)-2-({4-[(2-imino-2,3-dihydro-1,3-thiazol-3-yl)methyl]-1H-1,3-benzodiazol-2-yl}amino)propan-1-ol], the figure is under 1000 nM; as for `CC(CO)(Nc1nc2c(CNc3ncco3)cccc2[nH]1)c1ccc(Cl)c(F)c1` (single isomer, unassigned; (-)) [Example 40a, (−)-2-(4-chloro-3-fluorophenyl)-2-[(4-{[(1,3-oxazol-2-yl)amino]methyl}-1H-1,3-benzodiazol-2-yl)amino]propan-1-ol], under 30000 nM; as for `CC(CO)(Nc1nc2c(Cn3ccoc3=N)cccc2[nH]1)c1cccc(Cl)c1F` (single isomer, unassigned; (-)) [Example 41a, (−)-2-(3-chloro-2-fluorophenyl)-2-({4-[(2-imino-2,3-dihydro-1,3-oxazol-3-yl)methyl]-1H-1,3-benzodiazol-2-yl}amino)propan-1-ol], under 1000 nM.
With `CC(CO)(Nc1nc2c(CNc3ccon3)cccc2[nH]1)c1cc(F)cc(Cl)c1` (single isomer, unassigned; (-)) [Example 46a, (−)-2-(3-chloro-5-fluorophenyl)-2-[(4-{[(1,2-oxazol-3-yl)amino]methyl}-1H-1,3-benzodiazol-2-yl)amino]propan-1-ol], the IC50 was under 30000 nM.
As for `N=c1occn1Cc1cccc2[nH]c(NC3(c4cccc(Cl)c4)CC3)nc12` [Example 1, N-[1-(3-chlorophenyl)cyclopropyl]-4-[(2-imino-2,3-dihydro-1,3-oxazol-3-yl)methyl]-1H-1,3-benzodiazol-2-amine], the IC50 was under 30000 nM.
As for `CC(C)(Nc1nc2c(Cn3ccoc3=N)cccc2[nH]1)c1cccc(Cl)c1` [Example 2, N-[2-(3-chlorophenyl)propan-2-yl]-4-[(2-imino-2,3-dihydro-1,3-oxazol-3-yl)methyl]-1H-1,3-benzodiazol-2-amine], the figure is under 1000 nM; as for `CC(CO)(Nc1nc2c(Cn3ccoc3=N)cccc2[nH]1)c1cccc(Cl)c1` (stereo not shown) [Example 3, 2-(3-chlorophenyl)-2-({4-[(2-imino-2,3-dihydro-1,3-oxazol-3-yl)methyl]-1H-1,3-benzodiazol-2-yl}amino)propan-1-ol], under 1000 nM; as for `CC(Nc1nc2c(Cn3ccoc3=N)cccc2[nH]1)c1cccc(C(F)(F)F)c1` (stereo not shown) [Example 4, 4-[(2-imino-2,3-dihydro-1,3-oxazol-3-yl)methyl]-N-{1-[3-(trifluoromethyl)phenyl]ethyl}-1H-1,3-benzodiazol-2-amine], under 1000 nM.
For `Cc1coc(=N)n1Cc1cccc2[nH]c(NC(C)(CO)c3cccc(Cl)c3)nc12` (stereo not shown) [Example 5, 2-(3-chlorophenyl)-2-({4-[(2-imino-4-methyl-2,3-dihydro-1,3-oxazol-3-yl)methyl]-1H-1,3-benzodiazol-2-yl}amino)propan-1-ol], the concentration for half-maximal inhibition (IC50) is under 1000 nM.
The same measure for `COCC(C)(Nc1nc2c(Cn3ccoc3=N)cccc2[nH]1)c1cccc(Cl)c1` (stereo not shown) [Example 6, N-[2-(3-chlorophenyl)-1-methoxypropan-2-yl]-4-[(2-imino-2,3-dihydro-1,3-oxazol-3-yl)methyl]-1H-1,3-benzodiazol-2-amine]: under 30000 nM.
As for `CC(C)(Nc1nc2c(Cn3ccoc3=N)cccc2[nH]1)c1cccc(C(F)(F)F)c1` [Example 7, 4-[(2-imino-2,3-dihydro-1,3-oxazol-3-yl)methyl]-N-{2-[3-(trifluoromethyl)phenyl]propan-2-yl}-1H-1,3-benzodiazol-2-amine], the IC50 was under 1000 nM.
The same measure for `CC(CO)(Nc1nc2c(Cn3ccoc3=N)cccc2[nH]1)c1ccc(F)c(Cl)c1` (stereo not shown) [Example 8, 2-(3-chloro-4-fluorophenyl)-2-({4-[(2-imino-2,3-dihydro-1,3-oxazol-3-yl)methyl]-1H-1,3-benzodiazol-2-yl}amino)propan-1-ol]: under 1000 nM; for `CC(CO)(Nc1nc2c(CNc3ccon3)cccc2[nH]1)c1ccc(F)c(Cl)c1` (stereo not shown) [Example 9, 2-(3-chloro-4-fluorophenyl)-2-[(4-{[(1,2-oxazol-3-yl)amino]methyl}-1H-1,3-benzodiazol-2-yl)amino]propan-1-ol]: under 1000 nM; for `COCC(C)(Nc1nc2c(Cn3c(C)coc3=N)cccc2[nH]1)c1cccc(Cl)c1` (stereo not shown) [Example 10, N-[2-(3-chlorophenyl)-1-methoxypropan-2-yl]-4-[(2-imino-4-methyl-2,3-dihydro-1,3-oxazol-3-yl)methyl]-1H-1,3-benzodiazol-2-amine]: under 30000 nM.
With `CC(CO)(Nc1nc2c(CNc3ccncn3)cccc2[nH]1)c1ccc(F)c(Cl)c1` (stereo not shown) [Example 11, 2-(3-chloro-4-fluorophenyl)-2-[(4-{[(pyrimidin-4-yl)amino]methyl}-1H-1,3-benzodiazol-2-yl)amino]propan-1-ol], the IC50 was under 30000 nM.
The same measure for `Cc1cc(NCc2cccc3[nH]c(NC(C)(CO)c4ccc(F)c(Cl)c4)nc23)no1` (stereo not shown) [Example 12, 2-(3-chloro-4-fluorophenyl)-2-[(4-{[(5-methyl-1,2-oxazol-3-yl)amino]methyl}-1H-1,3-benzodiazol-2-yl)amino]propan-1-ol]: under 1000 nM; for `Cc1coc(=N)n1Cc1cccc2[nH]c(NC(C)(CO)c3ccc(F)c(Cl)c3)nc12` (stereo not shown) [Example 13, 2-(3-chloro-4-fluorophenyl)-2-({4-[(2-imino-4-methyl-2,3-dihydro-1,3-oxazol-3-yl)methyl]-1H-1,3-benzodiazol-2-yl}amino)propan-1-ol]: under 1000 nM.
As for `COCC(C)(Nc1nc2c(Cn3ccoc3=N)cccc2[nH]1)c1ccc(F)c(Cl)c1` (stereo not shown) [Example 14, N-[2-(3-chloro-4-fluorophenyl)-1-methoxypropan-2-yl]-4-[(2-imino-2,3-dihydro-1,3-oxazol-3-yl)methyl]-1H-1,3-benzodiazol-2-amine], the concentration for half-maximal inhibition (IC50) was under 30000 nM.
As for `Cc1nc(NCc2cccc3[nH]c(NC(C)(CO)c4ccc(F)c(Cl)c4)nc23)no1` (stereo not shown) [Example 15, 2-(3-chloro-4-fluorophenyl)-2-[(4-{[(5-methyl-1,2,4-oxadiazol-3-yl)amino]methyl}-1H-1,3-benzodiazol-2-yl)amino]propan-1-ol], the figure is under 30000 nM.
